Data from patent publication US20260234129A1, “NOVEL IMIDAZOLE DERIVATIVE AND USE THEREOF” (PELEMED CO., LTD., priority 2023, published 2026).

Assays:
Assay in all cases: scanMax kinase panel (Eurofins)
Type in all cases: binding
AURKB = target: T1, AURKB (Homo sapiens, UniProt Q96GD4); conditions: read-out: % control
T1 construct: purchased Eurofins
Method: (§1) The following assay method was performed to evaluate the inhibitory activities of a compound according to the present invention with respect to various enzymes. […] The compound was applied to the enzyme at a concentration of 1 μM, dissolved in DMSO, and the % control was determined according to Equation 1 below.
(§2) Here, the positive control refers to a compound corresponding to 0% control, and the negative control refers to a compound corresponding to 100% control.

CDK4-cyclinD3 = target: T2, CDK4-cyclinD3 (Homo sapiens, UniProt P11802); conditions: CDK4-cyclinD3, 1 μM; read-out: % control
T2 construct: purchased Eurofins scanMax® kinase panel
Method: as §1, §2

ERK4 = target: T3, ERK4 (Homo sapiens, UniProt P31152); conditions: ERK4, 1 μM; read-out: % control
T3 construct: purchased Eurofins scanMax® kinase panel
Method: as §1, §2

KIT(D816V) = target: T4, KIT(D816V) (Homo sapiens, UniProt P10721, D816V); conditions: read-out: % control
T4 construct: purchased Eurofins
T4 sequence (P10721 26-976 D816V): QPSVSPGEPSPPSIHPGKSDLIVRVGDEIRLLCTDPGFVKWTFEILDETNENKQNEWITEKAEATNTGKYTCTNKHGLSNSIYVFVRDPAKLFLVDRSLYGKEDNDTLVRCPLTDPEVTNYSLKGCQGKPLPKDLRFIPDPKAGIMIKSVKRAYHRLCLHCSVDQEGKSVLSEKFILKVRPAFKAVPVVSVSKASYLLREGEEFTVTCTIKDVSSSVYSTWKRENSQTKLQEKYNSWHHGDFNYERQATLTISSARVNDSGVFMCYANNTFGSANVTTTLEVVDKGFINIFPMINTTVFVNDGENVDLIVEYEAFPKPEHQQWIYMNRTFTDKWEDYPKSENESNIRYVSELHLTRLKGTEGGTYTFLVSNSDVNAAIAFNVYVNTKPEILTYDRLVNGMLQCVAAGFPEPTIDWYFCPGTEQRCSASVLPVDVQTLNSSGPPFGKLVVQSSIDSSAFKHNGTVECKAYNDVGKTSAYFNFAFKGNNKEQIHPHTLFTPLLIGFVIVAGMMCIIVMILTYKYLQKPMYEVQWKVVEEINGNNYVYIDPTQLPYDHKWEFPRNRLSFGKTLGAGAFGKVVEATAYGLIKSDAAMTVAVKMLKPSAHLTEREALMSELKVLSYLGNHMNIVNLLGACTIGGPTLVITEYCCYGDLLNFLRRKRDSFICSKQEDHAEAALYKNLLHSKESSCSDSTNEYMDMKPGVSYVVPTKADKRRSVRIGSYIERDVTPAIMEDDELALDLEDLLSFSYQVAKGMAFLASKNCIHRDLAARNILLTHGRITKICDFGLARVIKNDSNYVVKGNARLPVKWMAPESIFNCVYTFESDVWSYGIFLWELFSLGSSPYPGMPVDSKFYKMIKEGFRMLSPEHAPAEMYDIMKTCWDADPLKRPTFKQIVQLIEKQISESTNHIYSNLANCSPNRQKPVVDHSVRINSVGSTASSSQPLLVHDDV
Method: as §1, §2

HASPIN = target: T5, HASPIN (Homo sapiens, UniProt Q8TF76); conditions: read-out: % control
T5 construct: purchased Eurofins scanMax® kinase panel
T5 sequence (Q8TF76 whole entry): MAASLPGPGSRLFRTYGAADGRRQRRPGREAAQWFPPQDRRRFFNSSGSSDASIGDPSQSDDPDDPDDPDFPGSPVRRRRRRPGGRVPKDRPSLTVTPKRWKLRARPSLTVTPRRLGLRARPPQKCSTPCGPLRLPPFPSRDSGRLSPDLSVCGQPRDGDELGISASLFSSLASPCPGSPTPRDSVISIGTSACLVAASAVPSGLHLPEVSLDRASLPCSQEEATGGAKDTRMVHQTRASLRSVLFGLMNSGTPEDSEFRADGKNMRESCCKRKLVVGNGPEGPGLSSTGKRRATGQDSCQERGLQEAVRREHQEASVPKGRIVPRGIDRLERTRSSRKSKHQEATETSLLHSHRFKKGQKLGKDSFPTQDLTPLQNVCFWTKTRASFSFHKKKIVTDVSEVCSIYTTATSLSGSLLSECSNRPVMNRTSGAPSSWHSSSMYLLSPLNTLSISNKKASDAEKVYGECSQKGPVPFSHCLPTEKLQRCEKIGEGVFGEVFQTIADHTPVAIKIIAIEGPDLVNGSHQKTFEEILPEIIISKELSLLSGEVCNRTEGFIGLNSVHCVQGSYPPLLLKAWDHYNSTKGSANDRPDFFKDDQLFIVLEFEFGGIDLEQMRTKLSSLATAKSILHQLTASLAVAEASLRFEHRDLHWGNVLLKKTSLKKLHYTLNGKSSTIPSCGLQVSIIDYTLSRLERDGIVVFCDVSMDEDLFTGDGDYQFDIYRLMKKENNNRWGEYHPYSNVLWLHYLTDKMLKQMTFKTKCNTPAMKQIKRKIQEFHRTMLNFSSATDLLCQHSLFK
Method: as §1, §2

ABL1-nonphosphorylated = target: T6, ABL1-nonphosphorylated (Homo sapiens, UniProt P00519); conditions: read-out: % control
T6 construct: purchased Eurofins
Method: as §1, §2

HIPK3 = target: T7, HIPK3 (Homo sapiens, UniProt Q9H422); conditions: HIPK3, 1 μM; read-out: % control
T7 construct: purchased Eurofins
T7 sequence (Q9H422 whole entry): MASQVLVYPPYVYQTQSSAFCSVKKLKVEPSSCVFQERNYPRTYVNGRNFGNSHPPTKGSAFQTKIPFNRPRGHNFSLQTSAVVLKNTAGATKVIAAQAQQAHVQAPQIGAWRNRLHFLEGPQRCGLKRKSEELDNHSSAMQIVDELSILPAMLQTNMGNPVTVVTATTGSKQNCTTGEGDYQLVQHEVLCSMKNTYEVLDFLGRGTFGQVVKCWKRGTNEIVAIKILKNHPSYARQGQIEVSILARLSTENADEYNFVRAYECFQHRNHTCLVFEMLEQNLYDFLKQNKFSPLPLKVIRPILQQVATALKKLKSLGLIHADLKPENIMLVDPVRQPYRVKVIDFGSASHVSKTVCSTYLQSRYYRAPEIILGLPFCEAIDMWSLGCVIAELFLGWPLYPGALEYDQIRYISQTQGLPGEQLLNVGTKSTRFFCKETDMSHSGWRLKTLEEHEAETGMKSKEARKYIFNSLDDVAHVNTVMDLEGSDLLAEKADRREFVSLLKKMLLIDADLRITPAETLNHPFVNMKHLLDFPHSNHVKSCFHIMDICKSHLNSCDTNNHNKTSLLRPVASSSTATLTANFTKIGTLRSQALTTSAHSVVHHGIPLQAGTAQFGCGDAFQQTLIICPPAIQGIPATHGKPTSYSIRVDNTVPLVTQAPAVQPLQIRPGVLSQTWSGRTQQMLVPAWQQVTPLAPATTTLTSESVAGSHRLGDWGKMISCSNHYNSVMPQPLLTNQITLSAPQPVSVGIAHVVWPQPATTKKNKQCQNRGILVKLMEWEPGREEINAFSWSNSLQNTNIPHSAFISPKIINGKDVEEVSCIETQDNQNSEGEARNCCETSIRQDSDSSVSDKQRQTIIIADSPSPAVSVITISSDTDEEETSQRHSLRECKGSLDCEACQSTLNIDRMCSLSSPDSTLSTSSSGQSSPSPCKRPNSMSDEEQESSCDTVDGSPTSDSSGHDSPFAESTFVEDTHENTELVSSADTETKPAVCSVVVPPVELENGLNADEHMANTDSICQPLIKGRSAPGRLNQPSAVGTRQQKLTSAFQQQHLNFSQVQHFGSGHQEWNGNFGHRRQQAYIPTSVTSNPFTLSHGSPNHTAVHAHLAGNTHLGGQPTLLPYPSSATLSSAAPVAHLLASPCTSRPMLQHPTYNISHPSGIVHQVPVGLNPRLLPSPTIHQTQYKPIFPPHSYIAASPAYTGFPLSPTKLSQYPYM
Method: as §1, §2

IRAK3 = target: T8, IRAK3 (Homo sapiens, UniProt Q9Y616); conditions: IRAK3, 1 μM; read-out: % control
T8 construct: purchased Eurofins
Method: as §1, §2

[1] = target: T9, JAK2(JH1domain-catalytic) (Homo sapiens, UniProt O60674); conditions: read-out: % control
T9 construct: JAK2(JH1domain-catalytic); purchased Eurofins
Method: as §1, §2

HIPK1 = target: T10, HIPK1 (Homo sapiens, UniProt Q86Z02); conditions: HIPK1, 1 μM; read-out: % control
T10 construct: purchased Eurofins scanMax® kinase panel
Method: as §1, §2

[2] = target: T11, JAK3(JH1domain-catalytic) (Homo sapiens, UniProt P52333); conditions: read-out: % control
T11 construct: JAK3(JH1domain-catalytic); purchased Eurofins
Method: as §1, §2

CDK3 = target: T12, CDK3 (Homo sapiens, UniProt Q00526); conditions: CDK3, 1 μM; read-out: % control
T12 construct: purchased Eurofins
Method: as §1, §2

ROCK2 = target: T13, ROCK2 (Homo sapiens, UniProt O75116); conditions: ROCK2, 1 μM; read-out: % control
T13 construct: purchased Eurofins scanMax kinase panel
Method: as §1, §2

GSK3B = target: T14, GSK3B (Homo sapiens, UniProt P49841); conditions: read-out: % control
T14 construct: purchased Eurofins scanMax® kinase panel
Method: as §1, §2

KIT(V559D, V654A) = target: T15, KIT(V559D, V654A) (Homo sapiens, UniProt P10721, V559D/V654A); conditions: read-out: % control
T15 construct: purchased Eurofins
T15 sequence (P10721 26-976 V559D/V654A): as the sequence (P10721 26-976 D816V) above, with V534D, V629A, V791D counted along it
Method: as §1, §2

RET = target: T16, RET (Homo sapiens, UniProt P07949); conditions: read-out: % control
T16 construct: purchased Eurofins scanMax kinase panel
T16 sequence (P07949 29-1114): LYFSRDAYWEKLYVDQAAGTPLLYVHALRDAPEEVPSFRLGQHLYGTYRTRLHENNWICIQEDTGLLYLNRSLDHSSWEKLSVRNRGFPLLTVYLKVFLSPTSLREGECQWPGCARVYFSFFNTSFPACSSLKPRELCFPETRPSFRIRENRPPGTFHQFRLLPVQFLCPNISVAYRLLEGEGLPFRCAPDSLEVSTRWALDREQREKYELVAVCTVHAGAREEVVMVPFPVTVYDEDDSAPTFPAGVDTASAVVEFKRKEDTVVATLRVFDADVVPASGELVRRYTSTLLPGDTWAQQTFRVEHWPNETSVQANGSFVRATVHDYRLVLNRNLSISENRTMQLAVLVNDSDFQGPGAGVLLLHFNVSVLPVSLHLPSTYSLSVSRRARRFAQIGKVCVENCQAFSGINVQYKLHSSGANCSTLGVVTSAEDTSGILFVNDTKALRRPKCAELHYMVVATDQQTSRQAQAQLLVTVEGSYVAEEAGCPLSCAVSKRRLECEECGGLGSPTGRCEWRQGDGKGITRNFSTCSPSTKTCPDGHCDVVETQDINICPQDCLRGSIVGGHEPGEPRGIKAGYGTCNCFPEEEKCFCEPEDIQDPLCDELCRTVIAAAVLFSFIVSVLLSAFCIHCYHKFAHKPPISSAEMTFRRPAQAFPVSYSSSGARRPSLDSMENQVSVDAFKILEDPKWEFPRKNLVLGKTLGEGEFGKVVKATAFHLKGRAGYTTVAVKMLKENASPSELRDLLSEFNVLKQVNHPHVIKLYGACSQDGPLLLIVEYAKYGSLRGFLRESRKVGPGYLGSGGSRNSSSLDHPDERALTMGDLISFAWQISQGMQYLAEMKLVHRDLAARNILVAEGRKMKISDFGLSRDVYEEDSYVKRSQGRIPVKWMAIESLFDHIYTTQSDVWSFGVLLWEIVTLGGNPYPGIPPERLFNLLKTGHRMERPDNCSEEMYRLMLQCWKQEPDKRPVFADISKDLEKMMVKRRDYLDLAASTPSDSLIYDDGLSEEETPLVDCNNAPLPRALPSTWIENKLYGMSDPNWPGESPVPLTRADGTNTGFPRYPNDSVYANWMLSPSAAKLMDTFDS
Method: as §1, §2

ERK2 = target: T17, ERK2 (Homo sapiens, UniProt P28482); conditions: ERK2, 1 μM; read-out: % control
T17 construct: purchased Eurofins scanMax® kinase panel
Method: as §1, §2

GSK3A = target: T18, GSK3A (Homo sapiens, UniProt P49840); conditions: read-out: % control
T18 construct: purchased Eurofins scanMax® kinase panel
Method: as §1, §2

CDK7 = target: T19, CDK7 (Homo sapiens, UniProt P50613); conditions: CDK7, 1 μM; read-out: % control
T19 construct: purchased Eurofins scanMax® kinase panel
Method: as §1, §2

PIM3 = target: T20, PIM3 (Homo sapiens, UniProt Q86V86); conditions: PIM3, 1 μM; read-out: % control
T20 construct: purchased Eurofins scanMax kinase panel
Method: as §1, §2

[3] = target: T21, ABL1(Q252H)-phosphorylated (Homo sapiens, UniProt P00519, Q252H); conditions: read-out: % control
T21 construct: purchased Eurofins
Method: as §1, §2

TRKC = target: T22, TRKC (Homo sapiens, UniProt Q16288); conditions: read-out: % control
T22 construct: purchased Eurofins scanMax kinase panel
T22 sequence (Q16288 32-839): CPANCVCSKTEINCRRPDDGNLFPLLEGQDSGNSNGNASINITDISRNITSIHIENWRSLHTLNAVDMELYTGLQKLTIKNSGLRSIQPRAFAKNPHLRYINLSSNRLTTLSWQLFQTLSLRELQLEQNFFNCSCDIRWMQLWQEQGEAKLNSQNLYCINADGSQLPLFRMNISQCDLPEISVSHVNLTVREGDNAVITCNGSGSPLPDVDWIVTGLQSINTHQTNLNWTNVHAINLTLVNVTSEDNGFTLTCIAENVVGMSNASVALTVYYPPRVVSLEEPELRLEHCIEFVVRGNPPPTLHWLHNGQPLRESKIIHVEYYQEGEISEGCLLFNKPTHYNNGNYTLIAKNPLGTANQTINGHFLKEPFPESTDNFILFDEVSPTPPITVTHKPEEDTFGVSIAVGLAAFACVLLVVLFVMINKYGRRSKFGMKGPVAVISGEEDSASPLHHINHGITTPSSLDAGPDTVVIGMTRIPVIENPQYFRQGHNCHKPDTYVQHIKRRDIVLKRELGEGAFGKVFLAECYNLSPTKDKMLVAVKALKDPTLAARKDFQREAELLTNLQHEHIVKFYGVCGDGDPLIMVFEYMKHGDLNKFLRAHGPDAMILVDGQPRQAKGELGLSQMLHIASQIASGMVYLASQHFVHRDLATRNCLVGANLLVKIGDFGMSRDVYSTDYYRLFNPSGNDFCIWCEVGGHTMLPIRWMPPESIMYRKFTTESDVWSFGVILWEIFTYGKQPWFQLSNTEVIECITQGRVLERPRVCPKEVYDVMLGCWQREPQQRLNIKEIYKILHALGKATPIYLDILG
Method: as §1, §2

[4] = target: T23, ABL1(M351T)-phosphorylated (Homo sapiens, UniProt P00519, M351T); conditions: read-out: % control
T23 construct: purchased Eurofins
Method: as §1, §2

RET(V804M) = target: T24, RET(V804M) (Homo sapiens, UniProt P07949, V804M); conditions: read-out: % control
T24 construct: purchased Eurofins scanMax kinase panel
T24 sequence (P07949 29-1114 V804M): as the sequence (P07949 29-1114) above, with V776M counted along it
Method: as §1, §2

MEK3 = target: T25, MEK3 (Homo sapiens, UniProt P46734); conditions: MEK3, 1 μM; read-out: % control
T25 construct: purchased Eurofins
Method: as §1, §2

[5] = target: T26, ABL1(H396P)-nonphosphorylated (Homo sapiens, UniProt P00519, H396P); conditions: read-out: % control
T26 construct: purchased Eurofins
Method: as §1, §2

IRAK4 = target: T27, IRAK4 (Homo sapiens, UniProt Q9NWZ3); conditions: IRAK4, 1 μM; read-out: % control
T27 construct: purchased Eurofins
Method: as §1, §2

AURKC = target: T28, AURKC (Homo sapiens, UniProt Q9UQB9); conditions: read-out: % control
T28 construct: purchased Eurofins
Method: as §1, §2

KIT = target: T29, KIT (Homo sapiens, UniProt P10721); conditions: read-out: % control
T29 construct: purchased Eurofins
T29 sequence (P10721 26-976): as the sequence (P10721 26-976 D816V) above, with V791D counted along it
Method: as §1, §2

PAK7 = target: T30, PAK7 (Homo sapiens, UniProt Q9P286); conditions: PAK7, 1 μM; read-out: % control
T30 construct: purchased Eurofins scanMax kinase panel
Method: as §1, §2

[6] = target: T31, ABL1(E255K)-phosphorylated (Homo sapiens, UniProt P00519, E255K); conditions: read-out: % control
T31 construct: purchased Eurofins
Method: as §1, §2

KIT(V559D, T670I) = target: T32, KIT(V559D, T670I) (Homo sapiens, UniProt P10721, T670I/V559D); conditions: read-out: % control
T32 construct: purchased Eurofins
T32 sequence (P10721 26-976 V559D/T670I): as the sequence (P10721 26-976 D816V) above, with V534D, T645I, V791D counted along it
Method: as §1, §2

KIT(A829P) = target: T33, KIT(A829P) (Homo sapiens, UniProt P10721, A829P); conditions: read-out: % control
T33 construct: purchased Eurofins
T33 sequence (P10721 26-976 A829P): as the sequence (P10721 26-976 D816V) above, with V791D, A804P counted along it
Method: as §1, §2

CDK4-cycllinDl = target: T34, CDK4-cycllinDl (Homo sapiens, UniProt P11802); conditions: read-out: % control
T34 construct: purchased Eurofins
Method: as §1, §2

Measured: remaining binding at 1 µM

COc1ccc2nc(-c3n[nH]c4ccc(C(=O)N[C@H]5CC[C@H](N)C5)cc34)[nH]c2c1 [Example 32, N-((1S,3S)-3-aminocyclopentyl)-3-(6-methoxy-1H-benzo[d]imidazol-2-yl)-1H-indazole-5-carboxamide]
< 10%: all assays above
